Test results reported in patent US6136821A, “Naphthyridine derivatives” (Novartis AG, priority 1996, dated 2000).
pIC50: −log10 of the molar value.

What was measured:
[1] = system: human eosinophils; experiment: Inhibition of eosinophil activation by formyl-MetLeuPhe (fMLP); oxidative burst (lucigenin chemiluminescence); type: cell-based; conditions: fMLP 1 μM, lucigenin 25 μM, purified human eosinophils
Method: Anti-inflammatory activity: Inhibition of eosinophil activation by formyl-MetLeuPhe (fMLP)
Purified human eosinophils (10^4 /well in 0.2 ml HBSS) are stimulated with fMLP (1 μM) in the presence of lucigenin (25 μM). Inhibition of the oxidative burst (measured as changes in chemiluminescence) is determined from dose response curves using the logistic equation.

[2] = Water solubility; type: physicochemical; conditions: N-methyl-D-glucamine salt

pIC50 [1]	water solubility [2]	Compound
8.22	–	Nc1cc2cccnc2c(-c2cccc3nonc23)n1 [Example 2, 6-amino-8-(4-benzo[c]furazanyl)-1,7-naphthyridine]
–	water soluble	CNC[C@H](O)[C@@H](O)[C@H](O)[C@H](O)CO.O=C(O)c1ccc(-c2cc3cccnc3c(-c3cccc4nonc34)n2)cc1 [Example 34, 6-(4-carboxyphenyl)-8-(4-benzo[c]furazanyl)-1,7-napthyridine: salt with N-methyl-D-glucamine]
